The results in this text go back to US20070128217A1 (priority 2003, published 2007).

In assay [1] the test system is antibodies in sera from SARS patients (sera 1a, 1b, 2, 6, 37, 62, London, SARS-yellow, SARS-green). It counts as binding, human. More on the design: Binding of serum 6 to linear peptides of protein X1 of SARS-CoV Urbani / Binding of serum 37 to linear peptides of protein X1 of SARS-CoV Urbani / Binding of serum 6 to looped/cyclic peptide (PEPSCAN-ELISA) / Binding of serum 37 to looped/cyclic peptide (PEPSCAN-ELISA) / Binding of serum 37 to looped/cyclic peptides of protein X1 of SARS-CoV Urbani / Binding of serum 6 to linear peptides of protein X2 / Binding of serum 37 to linear peptides of protein X2 / Binding of serum 37 to looped/cyclic peptides of protein X2 of SARS-CoV Urbani / Binding of serum 6 to linear peptides of protein M of SARS-CoV Urbani / Binding of serum 37 to linear peptides of protein M of SARS-CoV Urbani / Binding of serum 6 to looped/cyclic peptides of protein M of SARS-CoV Urbani / Binding of serum 37 to looped/cyclic peptides of protein M of SARS-CoV Urbani / Binding of serum 6 to linear peptides of protein X3 of SARS-CoV Urbani / Binding of serum 37 to linear peptides of protein X3 of SARS-CoV Urbani / Binding of serum 37 to looped/cyclic peptides of protein X3 of SARS-CoV Urbani / Binding of serum 6 to linear peptides of protein X4 of SARS-CoV Urbani / Binding of serum 37 to linear peptides of protein X4 of SARS-CoV Urbani / Binding of serum 37 to looped/cyclic peptides of protein X4 of SARS-CoV Urbani / Binding of serum 6 to linear peptides of protein X5 of SARS-CoV Urbani / Binding of serum 37 to linear peptides of protein X5 of SARS-CoV Urbani / Binding of serum 37 to looped/cyclic peptides of protein X5 of SARS-CoV Urbani / Binding of serum 6 to linear peptides of protein N of SARS-CoV Urbani / Binding of serum 37 to linear peptides of protein N of SARS-CoV Urbani / Binding of serum 6 to linear peptide (PEPSCAN-ELISA) / Binding of serum 1a to looped/cyclic peptides of protein N of SARS-CoV Urbani / Binding of serum 1b to looped/cyclic peptides of protein N of SARS-CoV Urbani / Binding of serum 2 to looped/cyclic peptides of protein N of SARS-CoV Urbani / Binding of serum 6 to looped/cyclic peptides of protein N of SARS-CoV Urbani / Binding of serum 37 to looped/cyclic peptides of protein N of SARS-CoV Urbani / Binding of serum 62 to looped/cyclic peptides of protein N of SARS-CoV Urbani / Binding of serum London to looped/cyclic peptides of protein N of SARS-CoV Urbani / Binding of serum SARS-green to looped/cyclic peptides of protein N of SARS-CoV Urbani: unit not given here.

Assay [2] deals with rabbit serum obtained by immunizing a rabbit with the SARS-CoV strain Frankfurt 1. It counts as binding. More on the design: Binding of a rabbit serum to linear peptides / Binding of a rabbit serum to looped peptides / Rabbit serum linear peptides / Rabbit serum looped peptides / Binding of a rabbit serum to linear peptides of protein N of SARS-CoV Urbani (Rabbit serum linear peptides) / Binding of a rabbit serum to looped/cyclic peptides of protein N of SARS-CoV Urbani (Rabbit serum looped peptides): unit not given here.

In assay [3] the test system is control sera (pooled serum of ten healthy LUMC hospital workers; commercial negative donor pooled serum from the Dutch bloodbank). It counts as binding, human. Further details: Binding of Control serum LUMC to linear peptides / Binding of Control serum Blood-bank to linear peptides / Binding of Control serum LUMC to looped peptides / Binding of Control Serum Blood-Bank to Looped peptides / Binding of Control serum LUMC to linear peptides of the protein M of SARS-CoV Urbani / Binding of Control serum Blood-bank to linear peptides of the protein M of SARS-CoV Urbani / Binding of Control serum LUMC to looped peptides of the protein M of SARS-CoV Urbani / Binding of Control Serum Blood-Bank to Looped peptides of the protein M of SARS-CoV Urbani: unit not given here.

For IYFLQCINACRIIMR, in assay [1], the “Binding of serum 1a to linear peptides of protein X1 of SARS-CoV Urbani” value is recorded as 0.7, the “Binding of serum 1a to looped/cyclic peptide (PEPSCAN-ELISA)” value was found to be 0.6, the “Binding of serum 1b to linear peptides of protein X1 of SARS-CoV Urbani” value is given as 0.6 and the “Binding of serum 1b to looped/cyclic peptide (PEPSCAN-ELISA)” value worked out at 0.4. Further, in assay [1], the “Binding of serum 2 to linear peptides of protein X1 of SARS-CoV Urbani” value is reported as 0.6, the “Binding of serum 2 to looped/cyclic peptide (PEPSCAN-ELISA)” value is 0.8, the “Binding of serum 6 to linear peptides of protein X1 of SARS-CoV Urbani” value is recorded as 0.5 and the “Binding of serum 6 to looped/cyclic peptide (PEPSCAN-ELISA)” value is on record as 1.0. Besides, in assay [1], the “Binding of serum 37 to linear peptides of protein X1 of SARS-CoV Urbani” value turned out to be 0.7, the “Binding of serum 37 to looped/cyclic peptide (PEPSCAN-ELISA)” value is recorded as 0.6, the “Binding of serum 62 to linear peptides of protein X1 of SARS-CoV Urbani” value was determined as 0.7 and the “Binding of serum 62 to looped/cyclic peptide (PEPSCAN-ELISA)” value worked out at 0.7. Also, in assay [1], the “Binding of serum London to linear peptides of protein X1 of SARS-CoV Urbani” value was 0.3, the “Binding of serum London to looped/cyclic peptide (PEPSCAN-ELISA)” value is on record as 1.6, the “Binding of serum SARS-green to linear peptides of protein X1 of SARS-CoV Urbani” value is 0.2 and the “Binding of serum SARS-green to looped/cyclic peptide (PEPSCAN-ELISA)” value is on record as 0.2. Besides, in assay [1], the “Binding of serum SARS-yellow to linear peptides of protein X1 of SARS-CoV Urbani” value came to 0.5 and the “Binding of serum SARS-yellow to looped/cyclic peptide (PEPSCAN-ELISA)” value is 0.6. Also, in assay [2], the “Binding of a rabbit serum to linear peptides” value came to 0.5 and the “Binding of a rabbit serum to looped peptides” value stood at 0.9. Besides, in assay [3], the “Binding of Control Serum Blood-Bank to Looped peptides” value came out at 0.6, the “Binding of Control serum Blood-bank to linear peptides” value amounted to 0.7, the “Binding of Control serum LUMC to linear peptides” value came to 0.7 and the “Binding of Control serum LUMC to looped peptides” value worked out at 0.6.
With KDLPKEITVATSRTL, in assay [1], the “Binding of serum 1a to linear peptides of protein M of SARS-CoV Urbani” value stood at 0.7, the “Binding of serum 1a to looped/cyclic peptides of protein M of SARS-CoV Urbani” value worked out at 0.6, the “Binding of serum 1b to linear peptides of protein M of SARS-CoV Urbani” value was found to be 0.6 and the “Binding of serum 1b to looped/cyclic peptides of protein M of SARS-CoV Urbani” value worked out at 0.6. In addition, in assay [1], the “Binding of serum 2 to linear peptides of protein M of SARS-CoV Urbani” value was 0.6, the “Binding of serum 2 to looped/cyclic peptides of protein M of SARS-CoV Urbani” value was found to be 0.7, the “Binding of serum 6 to linear peptides of protein M of SARS-CoV Urbani” value stood at 0.5 and the “Binding of serum 6 to looped/cyclic peptides of protein M of SARS-CoV Urbani” value came out at 1.1. Besides, in assay [1], the “Binding of serum 37 to linear peptides of protein M of SARS-CoV Urbani” value is recorded as 0.5, the “Binding of serum 37 to looped/cyclic peptides of protein M of SARS-CoV Urbani” value is listed as 0.6, the “Binding of serum 62 to linear peptides of protein M of SARS-CoV Urbani” value is 0.5 and the “Binding of serum 62 to looped/cyclic peptides of protein M of SARS-CoV Urbani” value was 0.6. Besides, in assay [1], the “Binding of serum London to linear peptides of protein M of SARS-CoV Urbani” value was 0.3, the “Binding of serum London to looped/cyclic peptides of protein M of SARS-CoV Urbani” value stood at 1.1, the “Binding of serum SARS-green to linear peptides of protein M of SARS-CoV Urbani” value was found to be 0.5 and the “Binding of serum SARS-green to looped/cyclic peptides of protein M of SARS-CoV Urbani” value stood at 0.3. Besides, in assay [1], the “Binding of serum SARS-yellow to linear peptides of protein M of SARS-CoV Urbani” value is listed as 0.2 and the “Binding of serum SARS-yellow to looped/cyclic peptides of protein M of SARS-CoV Urbani” value is given as 0.9. Further, in assay [2], the “Rabbit serum linear peptides” value is 0.2 and the “Rabbit serum looped peptides” value is 0.3. Besides, in assay [3], the “Binding of Control Serum Blood-Bank to Looped peptides of the protein M of SARS-CoV Urbani” value stood at 0.6, the “Binding of Control serum Blood-bank to linear peptides of the protein M of SARS-CoV Urbani” value is listed as 0.7, the “Binding of Control serum LUMC to linear peptides of the protein M of SARS-CoV Urbani” value is given as 0.6 and the “Binding of Control serum LUMC to looped peptides of the protein M of SARS-CoV Urbani” value was 0.8.
Turning to KEITVATSRTLSYYK, in assay [1], the “Binding of serum 1a to linear peptides of protein M of SARS-CoV Urbani” value is recorded as 0.7, the “Binding of serum 1a to looped/cyclic peptides of protein M of SARS-CoV Urbani” value was 0.6, the “Binding of serum 1b to linear peptides of protein M of SARS-CoV Urbani” value is 0.6 and the “Binding of serum 1b to looped/cyclic peptides of protein M of SARS-CoV Urbani” value came out at 0.5. In addition, in assay [1], the “Binding of serum 2 to linear peptides of protein M of SARS-CoV Urbani” value came out at 0.6, the “Binding of serum 2 to looped/cyclic peptides of protein M of SARS-CoV Urbani” value turned out to be 0.8, the “Binding of serum 6 to linear peptides of protein M of SARS-CoV Urbani” value was 0.0 and the “Binding of serum 6 to looped/cyclic peptides of protein M of SARS-CoV Urbani” value is 1.3. Also, in assay [1], the “Binding of serum 37 to linear peptides of protein M of SARS-CoV Urbani” value stood at 0.5, the “Binding of serum 37 to looped/cyclic peptides of protein M of SARS-CoV Urbani” value is given as 0.6, the “Binding of serum 62 to linear peptides of protein M of SARS-CoV Urbani” value is listed as 0.6 and the “Binding of serum 62 to looped/cyclic peptides of protein M of SARS-CoV Urbani” value is recorded as 0.5. In assay [1], the “Binding of serum London to linear peptides of protein M of SARS-CoV Urbani” value was found to be 0.3, the “Binding of serum London to looped/cyclic peptides of protein M of SARS-CoV Urbani” value was found to be 0.4, the “Binding of serum SARS-green to linear peptides of protein M of SARS-CoV Urbani” value is recorded as 0.4 and the “Binding of serum SARS-green to looped/cyclic peptides of protein M of SARS-CoV Urbani” value worked out at 0.2. In assay [1], the “Binding of serum SARS-yellow to linear peptides of protein M of SARS-CoV Urbani” value worked out at 0.2 and the “Binding of serum SARS-yellow to looped/cyclic peptides of protein M of SARS-CoV Urbani” value is on record as 0.5. Moreover, in assay [2], the “Rabbit serum linear peptides” value came to 0.4 and the “Rabbit serum looped peptides” value was 0.5. For the same sequence, in assay [3], the “Binding of Control Serum Blood-Bank to Looped peptides of the protein M of SARS-CoV Urbani” value is recorded as 0.7, the “Binding of Control serum Blood-bank to linear peptides of the protein M of SARS-CoV Urbani” value is reported as 0.8, the “Binding of Control serum LUMC to linear peptides of the protein M of SARS-CoV Urbani” value is recorded as 0.6 and the “Binding of Control serum LUMC to looped peptides of the protein M of SARS-CoV Urbani” value is on record as 0.7.
KEPCPSGTYEGNSPF: in assay [1], the “Binding of serum 1a to linear peptides of protein X4 of SARS-CoV Urbani” value was found to be 0.7, the “Binding of serum 1a to looped/cyclic peptides of protein X4 of SARS-CoV Urbani” value worked out at 0.8, the “Binding of serum 1b to linear peptides of protein X4 of SARS-CoV Urbani” value stood at 0.6 and the “Binding of serum 1b to looped/cyclic peptides of protein X4 of SARS-CoV Urbani” value was 0.6. For the same sequence, in assay [1], the “Binding of serum 2 to linear peptides of protein X4 of SARS-CoV Urbani” value was 0.4, the “Binding of serum 2 to looped/cyclic peptides of protein X4 of SARS-CoV Urbani” value is listed as 0.6, the “Binding of serum 6 to linear peptides of protein X4 of SARS-CoV Urbani” value came to 0.4 and the “Binding of serum 6 to looped/cyclic peptides of protein X4 of SARS-CoV Urbani” value is recorded as 0.6. Further, in assay [1], the “Binding of serum 37 to linear peptides of protein X4 of SARS-CoV Urbani” value worked out at 0.7, the “Binding of serum 37 to looped/cyclic peptides of protein X4 of SARS-CoV Urbani” value is 0.7, the “Binding of serum 62 to linear peptides of protein X4 of SARS-CoV Urbani” value stood at 0.8 and the “Binding of serum 62 to looped/cyclic peptides of protein X4 of SARS-CoV Urbani” value came out at 0.6. For the same sequence, in assay [1], the “Binding of serum London to linear peptides of protein X4 of SARS-CoV Urbani” value came to 0.8, the “Binding of serum London to looped/cyclic peptides of protein X4 of SARS-CoV Urbani” value amounted to 0.3, the “Binding of serum SARS-green to linear peptides of protein X4 of SARS-CoV Urbani” value came to 0.6 and the “Binding of serum SARS-green to looped/cyclic peptides of protein X4 of SARS-CoV Urbani” value came out at 0.4. In assay [1], the “Binding of serum SARS-yellow to linear peptides of protein X4 of SARS-CoV Urbani” value is recorded as 0.7 and the “Binding of serum SARS-yellow to looped/cyclic peptides of protein X4 of SARS-CoV Urbani” value is recorded as 0.3. For the same sequence, in assay [2], the “Rabbit serum linear peptides” value was 0.4 and the “Rabbit serum looped peptides” value is given as 0.3. Besides, in assay [3], the “Binding of Control Serum Blood-Bank to Looped peptides” value is recorded as 0.5, the “Binding of Control serum Blood-bank to linear peptides” value came out at 0.6, the “Binding of Control serum LUMC to linear peptides” value is 0.6 and the “Binding of Control serum LUMC to looped peptides” value was 0.8.
